Reference: publication PMC8865125, “Isocoumarins: a new class of selective carbonic anhydrase IX and XII inhibitors” (Journal of Enzyme Inhibition and Medicinal Chemistry, 2022)
Where two headings read alike, the source gives them in different places.

Assays:
Test in all cases: stopped-flow CO2 hydrase assay
Format in all cases: biochemical
[1] = biological target: T1, hCA IX (Homo sapiens, UniProt Q16790); settings: read-out: KI (μM)^a^,b / hCA IX
T1 construct: gene CA9; recombinant
Description: stopped-flow CO2 hydrase assay on hCA IX

[2] = biological target: T2, hCA II (Homo sapiens, UniProt P00918); settings: read-out: KI (μM)^a^,b / hCA I
T2 construct: gene CA2; recombinant

[3] = biological target: T3, hCA XII (Homo sapiens, UniProt O43570); settings: read-out: KI (μM)^a^,b / hCA XII
T3 construct: gene CA12; recombinant
T3 sequence (O43570 25-354 limits assumed): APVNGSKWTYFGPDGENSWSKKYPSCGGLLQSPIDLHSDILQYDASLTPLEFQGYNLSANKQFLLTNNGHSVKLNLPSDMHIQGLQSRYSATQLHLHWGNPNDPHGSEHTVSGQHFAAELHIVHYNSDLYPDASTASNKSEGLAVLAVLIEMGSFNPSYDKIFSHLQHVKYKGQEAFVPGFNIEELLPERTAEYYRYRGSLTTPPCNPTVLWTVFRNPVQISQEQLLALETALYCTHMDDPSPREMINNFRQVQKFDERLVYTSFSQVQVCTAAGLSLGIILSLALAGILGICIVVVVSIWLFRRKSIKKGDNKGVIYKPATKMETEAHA
Description: stopped-flow CO2 hydrase assay on hCA XII

[4] = biological target: T4, hCA I (Homo sapiens, UniProt P00915); settings: read-out: KI (μM)^a^,b / hCA I
T4 construct: gene CA1; recombinant
T4 sequence (P00915 2-261): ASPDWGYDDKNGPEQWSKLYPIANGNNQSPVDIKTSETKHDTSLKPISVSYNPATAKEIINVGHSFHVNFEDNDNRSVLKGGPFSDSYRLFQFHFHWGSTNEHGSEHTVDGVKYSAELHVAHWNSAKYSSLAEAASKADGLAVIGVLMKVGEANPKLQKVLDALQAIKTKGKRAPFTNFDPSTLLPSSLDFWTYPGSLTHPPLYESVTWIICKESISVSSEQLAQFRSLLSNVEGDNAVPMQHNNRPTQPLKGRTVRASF
Description: stopped-flow CO2 hydrase assay on hCA I

[5] = biological target: T3, hCA XII; settings: read-out: KI (μM)^a^,b / hCA I
[6] = biological target: T1, hCA IX; settings: read-out: KI (μM)^a^,b / hCA I

Row | Structure (SMILES) | Ki [1] | Ki [2] | Ki [3] | Ki [4] | Ki [5] | Ki [6]
1 | Cc1c(-c2nn(-c3ccccc3)cc2C=C2C(=O)NC(=S)NC2=O)oc(=O)c2ccccc12 [X19, 5-((3–(4-methyl-1-oxo-1H-isochromen-3-yl)-1-phenyl-1H-pyrazol-4-yl)methylene)-2-thioxodihydropyrimidine-4,6(1H,5H)-dione] | 72.3 µM | > 100 µM | 62.8 µM | > 100 µM | – | –
2 | Cc1c(-c2nn(-c3ccc(Cl)cc3)cc2C=O)oc(=O)c2ccccc12 [X10, 1–(4-chlorophenyl)-3–(4-methyl-1-oxo-1H-isochromen-3-yl)-1H-pyrazole-4-carbaldehyde] | 8.1 µM | > 100 µM | 13.4 µM | > 100 µM | – | –
3 | CC(=NNc1ccccc1)c1oc(=O)c2ccccc2c1C [X4, 4-methyl-3–(1-(2-phenylhydrazono)ethyl)-1H-isochromen-1-one] | 3.9 µM | > 100 µM | 2.3 µM | > 100 µM | – | –
4 | N#Cc1ccc(-n2cc(C=C3C(=O)NC(=O)NC3=O)c(-c3cc4ccccc4c(=O)o3)n2)cc1 [X13, 4–(3-(1-oxo-1H-isochromen-3-yl)-4-((2,4,6-trioxotetrahydropyrimidin-5(2H)-ylidene)methyl)-1H-pyrazol-1-yl) benzonitrile] | 62.4 µM | > 100 µM | 36.2 µM | > 100 µM | – | –
5 | Cc1c(-c2nn(-c3ccccc3)cc2C=O)oc(=O)c2ccccc12 [X9, 3–(4-methyl-1-oxo-1H-isochromen-3-yl)-1-phenyl-1H-pyrazole-4-carbaldehyde] | 8.9 µM | > 100 µM | 8.1 µM | > 100 µM | – | –
6 | O=C1NC(=S)NC(=O)C1=Cc1cn(-c2ccc(Cl)cc2)nc1-c1cc2ccccc2c(=O)o1 [X17, 5-((1–(4-chlorophenyl)-3–(1-oxo-1H-isochromen-3-yl)-1H-pyrazol-4-yl)methylene)-2-thioxodihydropyrimidine-4,6(1H,5H)-dione] | – | > 100 µM | – | > 100 µM | > 100 µM | > 100 µM
7 | Cc1c(-c2nn(-c3ccc(Cl)cc3)cc2C=C2C(=O)NC(=S)NC2=O)oc(=O)c2ccccc12 [X20, 5-((1–(4-chlorophenyl)-3–(4-methyl-1-oxo-1H-isochromen-3-yl)-1H-pyrazol-4-yl)methylene)-2-thioxodihydropyrimidine-4,6(1H,5H)-dione] | – | > 100 µM | – | > 100 µM | > 100 µM | > 100 µM
8 | CC(=NNc1ccc(C#N)cc1)c1cc2ccccc2c(=O)o1 [X3, 4–(2-(1–(1-oxo-1H-isochromen-3-yl)ethylidene)hydrazinyl) benzonitrile] | – | > 100 µM | 1.2 µM | > 100 µM | – | –
9 | O=Cc1cn(-c2ccccc2)nc1-c1cc2ccccc2c(=O)o1 [X6, 3–(1-oxo-1H-isochromen-3-yl)-1-phenyl-1H-pyrazole-4-carbaldehyde] | 7.1 µM | > 100 µM | 6.5 µM | > 100 µM | – | –
10 | O=C1NC(=S)NC(=O)C1=Cc1cn(-c2ccccc2)nc1-c1cc2ccccc2c(=O)o1 [X16, 5-((3–(1-oxo-1H-isochromen-3-yl)-1-phenyl-1H-pyrazol-4-yl)methylene)-2-thioxodihydropyrimidine-4,6(1H,5H)-dione] | 49.7 µM | > 100 µM | 47.1 µM | > 100 µM | – | –
11 | O=C1NC(=O)C(=Cc2cn(-c3ccc(Cl)cc3)nc2-c2cc3ccccc3c(=O)o2)C(=O)N1 [X12, 5-((1–(4-chlorophenyl)-3–(1-oxo-1H-isochromen-3-yl)-1H-pyrazol-4-yl)methylene) pyrimidine-2,4,6(1H,3H,5H)-trione] | – | > 100 µM | – | > 100 µM | > 100 µM | > 100 µM
12 | CC(=NNc1ccccc1)c1cc2ccccc2c(=O)o1 [X1, 3–(1-(2-phenylhydrazono)ethyl)-1H-isochromen-1-one] | 4.3 µM | > 100 µM | 1.9 µM | > 100 µM | – | –
13 | O=Cc1cn(-c2ccc(Cl)cc2)nc1-c1cc2ccccc2c(=O)o1 [X7, 1–(4-chlorophenyl)-3–(1-oxo-1H-isochromen-3-yl)-1H-pyrazole-4-carbaldehyde] | 6.2 µM | > 100 µM | 11.6 µM | > 100 µM | – | –
14 | CC(=NNc1ccc(Cl)cc1)c1cc2ccccc2c(=O)o1 [X2, 3–(1-(2–(4-chlorophenyl) hydrazono)ethyl)-1H-isochromen-1-one] | 3.5 µM | > 100 µM | 4.6 µM | > 100 µM | – | –
15 | N#Cc1ccc(-n2cc(C=O)c(-c3cc4ccccc4c(=O)o3)n2)cc1 [X8, 4–(4-formyl-3–(1-oxo-1H-isochromen-3-yl)-1H-pyrazol-1-yl) benzonitrile] | 8 µM | > 100 µM | 8.3 µM | > 100 µM | – | –
16 | Cc1c(-c2nn(-c3ccc(Cl)cc3)cc2C=C2C(=O)NC(=O)NC2=O)oc(=O)c2ccccc12 [X15, 5-((1–(4-chlorophenyl)-3–(4-methyl-1-oxo-1H-isochromen-3-yl)-1H-pyrazol-4-yl)methylene) pyrimidine-2,4,6(1H,3H,5H)-trione] | – | > 100 µM | – | > 100 µM | > 100 µM | > 100 µM
17 | O=C1NC(=O)C(=Cc2cn(-c3ccccc3)nc2-c2cc3ccccc3c(=O)o2)C(=O)N1 [X11, 5-((3–(1-oxo-1H-isochromen-3-yl)-1-phenyl-1H-pyrazol-4-yl)methylene) pyrimidine-2,4,6(1H,3H,5H)-trione] | 46.2 µM | > 100 µM | 41.7 µM | > 100 µM | – | –
18 | N#Cc1ccc(-n2cc(C=C3C(=O)NC(=S)NC3=O)c(-c3cc4ccccc4c(=O)o3)n2)cc1 [X18, 4–(4-((4,6-dioxo-2-thioxotetrahydropyrimidin-5(2H)-ylidene)methyl)-3–(1-oxo-1H-isochromen-3-yl)-1H-pyrazol-1-yl) benzonitrile] | 78.9 µM | > 100 µM | 53.4 µM | > 100 µM | – | –
19 | CC(=NNc1ccc(Cl)cc1)c1oc(=O)c2ccccc2c1C [X5, 3–(1-(2–(4-chlorophenyl) hydrazono)ethyl)-4-methyl-1H-isochromen-1-one] | 2.7 µM | > 100 µM | 5.8 µM | > 100 µM | – | –
20 | Cc1c(-c2nn(-c3ccccc3)cc2C=C2C(=O)NC(=O)NC2=O)oc(=O)c2ccccc12 [X14, 5-((3–(4-methyl-1-oxo-1H-isochromen-3-yl)-1-phenyl-1H-pyrazol-4-yl)methylene) pyrimidine-2,4,6(1H,3H,5H)-trione] | 54.6 µM | > 100 µM | 66.5 µM | > 100 µM | – | –
